Measured values reported in US20150307614A1, “Enhanced immunological responses” (Duke University, priority 2009, published 2015).

Assays:
[1] = TMZ-induced lymphopenia in patients with GBM; type: in vivo, human; settings: after the first cycle (150-200 mg/m2/5 d), n=10
Procedure: (§1) It also induces transient, Grade 3 lymphopenia (<500 cells/uL) in 70% of patients with GBM after the first cycle (150-200 mg/m2/5 d) with nadirs occurring 14-21 days after treatment (n=10). TMZ treatment also leads to an increase in the proportion of TRegs in the peripheral blood (unpublished). Despite this, we have been able to induce and maintain potent EGFRvIII-specific humoral and cellular immune responses in patients with GBM receiving TMZ. Thus, we evaluated TMZ for its capacity to induce homeostatic proliferation and to enhance antigen-specific immune responses in a murine model. Markedly elevated levels of antigen-specific T-cells could be achieved and maintained in mice receiving antigen-specific vaccination after TMZ-induced lymphopenia when compared to normal hosts.

[2] = system: OVA-specific T-cells; assay: Antigen-specific vaccination after TMZ-induced lymphopenia in mice, with or without anti-IL-2Rα; type: in vivo; settings: TMZ pre-treatment
Procedure: as §1

[3] = system: human TRegs; assay: Daclizumab on human TRegs in vitro; type: cell-based
[4] = system: newly-diagnosed, EGFRvIII+ GBM
Procedure: In patients with newly-diagnosed, EGFRvIII+ GBM, after resection and radiation/TMZ, patients received CDX-110 vaccinations biweekly×3, then monthly until tumor progression in combination with TMZ (200 mg/m^2×5/28 days). […] The others received saline in a double-blinded fashion.

[5] = after expansion post vaccination

Cn1nnc2c(C(N)=O)ncn2c1=O [TMZ, temozolomide]
patients with transient Grade 3 lymphopenia (<500 cells/uL) [1]: 70% | time of lymphopenia nadirs after treatment [1]: 14 to 21 days | OVA-specific T-cells, frequency of circulating CD8+ T-cells ([2]; 4 weeks post-vaccination): 21.18% | OVA-specific T-cells, absolute count after vaccination [2, 5]: 42.61 cells/uL | OVA-specific T-cells, frequency of circulating CD8+ T-cells after vaccination [2, 5]: 10.64% | OVA-specific T-cells, absolute count, start of expansion ([2]; starting count): 3.41 cells/uL blood | OVA-specific T-cells, frequency of circulating CD8+ T-cells, start of expansion ([2]; starting frequency): 0.40%

daclizumab: commercially available humanized IL-2Rα-specific antibody
effector T-cell function ([3]; in vitro): increase | human TRegs ([3]; in vitro): reduction | CD4+ T-cell responses ([3]; preliminary in vitro studies with human TRegs in the presence of daclizumab): enhancement | OS (overall survival) ([4]; both arms): has not been reached | TTP (time to progression) ([4]; both arms): has not been reached | overall CD8+ or CD4+ T-cell counts ([4]; daclizumab 1 mg/Kg×1, preliminary analysis n=4): without reducing | EGFRvIII-specific immune responses ([4]; daclizumab arm, preliminary analysis n=4, p=0.01 t-test): enhanced | titer of cytotoxic EGFRvIII-specific IgG1 isotype antibodies ([4]; human, in vivo): enhanced | Treg (CD4+CD25+CD45RO+FOXP3+) numbers, change from baseline ([4]; reduction, daclizumab 1 mg/Kg×1 at first vaccine, preliminary analysis n=4, p=0.011 t-test): 82.4±7.1%
